What was measured:
Type in all cases: functional
Staphylococcus aureus [1] = test: Minimum inhibitory concentration required for the antibacterial activity against Staphylococcus aureus 13N Munchen
Staphylococcus aureus [2] = test: Minimum inhibitory concentration required for the antibacterial activity against Staphylococcus aureus 1756; conditions: Staphylococcus aureus; read-out: MIC
Staphylococcus aureus [3] = test: Minimum inhibitory concentration required for the antibacterial activity against Staphylococcus aureus 21b Belgium
Staphylococcus aureus [4] = test: Minimum inhibitory concentration required for the antibacterial activity against Staphylococcus aureus 25085
Staphylococcus aureus [5] = test: Minimum inhibitory concentration required for the antibacterial activity against Staphylococcus aureus 25463
Staphylococcus aureus [6] = test: Minimum inhibitory concentration required for the antibacterial activity against Staphylococcus aureus 25464
Staphylococcus aureus [7] = test: Minimum inhibitory concentration required for the antibacterial activity against Staphylococcus aureus 25470
Staphylococcus aureus [8] = test: Minimum inhibitory concentration required for the antibacterial activity against Staphylococcus aureus 25697
Staphylococcus aureus [9] = test: Minimum inhibitory concentration required for the antibacterial activity against Staphylococcus aureus 25768
Staphylococcus aureus [10] = test: Minimum inhibitory concentration required for the antibacterial activity against Staphylococcus aureus 41h Belgium
Staphylococcus aureus [11] = test: Minimum inhibitory concentration required for the antibacterial activity against Staphylococcus aureus 4978 Israel
Staphylococcus aureus [12] = test: Minimum inhibitory concentration required for the antibacterial activity against Staphylococcus aureus 77 Innsbruck
Staphylococcus aureus [13] = test: Minimum inhibitory concentration required for the antibacterial activity against Staphylococcus aureus 79B Innsbruck
Staphylococcus aureus [14] = test: Minimum inhibitory concentration required for the antibacterial activity against Staphylococcus aureus 86 Innsbruck
Staphylococcus aureus [15] = test: Minimum inhibitory concentration required for the antibacterial activity against Staphylococcus aureus 90 Innsbruck
Staphylococcus aureus [16] = test: Minimum inhibitory concentration required for the antibacterial activity against Staphylococcus aureus 17N Munchen
Staphylococcus aureus [17] = test: Minimum inhibitory concentration required for the antibacterial activity against Staphylococcus aureus 48N Munchen
Bacteroides fragilis [18] = test: Minimum inhibitory concentration required for the antibacterial activity against Bacillus fragilis 4891/91 Kr
Bacteroides fragilis [19] = test: Minimum inhibitory concentration required for the antibacterial activity against Bacillus fragilis DSM 2151
Bacteroides fragilis [20] = test: Minimum inhibitory concentration required for the antibacterial activity against Bacillus fragilis ES 25
Bacteroides fragilis [21] = test: Minimum inhibitory concentration required for the antibacterial activity against Bacillus fragilis GA I - 0558 Japan
Bacteroides fragilis [22] = test: Minimum inhibitory concentration required for the antibacterial activity against Bacillus fragilis Kr 1 TV
Bacteroides fragilis [23] = test: Minimum inhibitory concentration required for the antibacterial activity against Bacillus fragilis Kr II
Bacteroides fragilis [24] = test: Minimum inhibitory concentration required for the antibacterial activity against Bacillus fragilis L 1168 Italien
[25] = tested on: Prevotella melaninogenica; test: Minimum inhibitory concentration required for the antibacterial activity against Bacillus melaninogenicus Heidelberg
[26] = tested on: Prevotella melaninogenica; test: Minimum inhibitory concentration required for the antibacterial activity against Bacillus melaninogenicus Kr
[27] = tested on: Parabacteroides distasonis; test: Minimum inhibitory concentration required for the antibacterial activity against Bacillus distasonis Heidelberg
[28] = tested on: Parabacteroides distasonis; test: Minimum inhibitory concentration required for the antibacterial activity against Bacillus distasonis Kr
Bacteroides fragilis [29] = test: Minimum inhibitory concentration required for the antibacterial activity against Bacillus fragilis 010848
Bacteroides fragilis [30] = test: Minimum inhibitory concentration required for the antibacterial activity against Bacillus fragilis 06688
Bacteroides fragilis [31] = test: Minimum inhibitory concentration required for the antibacterial activity against Bacillus fragilis 1560 I/82
Bacteroides fragilis [32] = test: Minimum inhibitory concentration required for the antibacterial activity against Bacillus fragilis 2034/35 Kr 43
Bacteroides fragilis [33] = test: Minimum inhibitory concentration required for the antibacterial activity against Bacillus fragilis 4661 Kr
[34] = tested on: Bacteroides thetaiotaomicron; test: Minimum inhibitory concentration required for the antibacterial activity against Bacillus thetaiotaomicron 235 Munchen
[35] = tested on: Bacteroides thetaiotaomicron; test: Minimum inhibitory concentration required for the antibacterial activity against Bacillus thetaiotaomicron DSM 2079
Phocaeicola vulgatus = test: Minimum inhibitory concentration required for the antibacterial activity against Bacillus valgatus Kr III
Clostridium perfringens [36] = test: Minimum inhibitory concentration required for the antibacterial activity against Clostridium perfringens 1024027
Clostridium perfringens [37] = test: Minimum inhibitory concentration required for the antibacterial activity against Clostridium perfringens 24071
Clostridium perfringens [38] = test: Minimum inhibitory concentration required for the antibacterial activity against Clostridium perfringens 24072
Clostridium perfringens [39] = test: Minimum inhibitory concentration required for the antibacterial activity against Clostridium perfringens DSM 756
Clostridium butyricum = test: Minimum inhibitory concentration required for the antibacterial activity against Clostridium butyricum
Thomasclavelia ramosa = test: Minimum inhibitory concentration required for the antibacterial activity against Clostridium ramosum DSM 1402
Clostridium sporogenes = test: Minimum inhibitory concentration required for the antibacterial activity against Clostridium sporogenes
Fusobacterium nucleatum = test: Minimum inhibitory concentration required for the antibacterial activity against Fusobacterium nucleatum DSM 20482
[40] = tested on: Peptostreptococcus anaerobius; test: Minimum inhibitory concentration required for the antibacterial activity against Peptostrept. anaer. Kr I
[41] = tested on: Peptostreptococcus anaerobius; test: Minimum inhibitory concentration required for the antibacterial activity against Peptostrept. anaer. Kr II
[42] = tested on: Peptostreptococcus anaerobius; test: Minimum inhibitory concentration required for the antibacterial activity against Peptostrept. anaer. 222 I/82
[43] = tested on: Peptostreptococcus anaerobius; test: Minimum inhibitory concentration required for the antibacterial activity against Peptostrept. anaer. DSM 20357
[44] = tested on: Peptoniphilus asaccharolyticus; test: Minimum inhibitory concentration required for the antibacterial activity against Peptococcus asacchar. DSM 20463
Anaerococcus prevotii = test: Minimum inhibitory concentration required for the antibacterial activity against Peptococcus prevotii DSM 20548
[45] = tested on: Fusobacterium necrophorum; test: Minimum inhibitory concentration required for the antibacterial activity against Sphaerophorus necrophorus Kr
Clostridium septicum = test: Minimum inhibitory concentration required for the antibacterial activity against Clostridium septicum

Measured: MIC

CC1(C)S[C@@H]2[C@H](NC(=O)[C@H](N)c3ccccc3)C(=O)N2[C@H]1C(=O)O [AMPICILLIN]
> 100 µg/mL: Staphylococcus aureus [3]
25 µg/mL: Staphylococcus aureus [8] | Staphylococcus aureus [16]
50 µg/mL: Staphylococcus aureus [1] | Staphylococcus aureus [2] | Staphylococcus aureus [4] | Staphylococcus aureus [5] | Staphylococcus aureus [6] | Staphylococcus aureus [7] | Staphylococcus aureus [9] | Staphylococcus aureus [10] | Staphylococcus aureus [12] | Staphylococcus aureus [13] | Staphylococcus aureus [14] | Staphylococcus aureus [15] | Staphylococcus aureus [17]
1.56 µg/mL: Staphylococcus aureus [11]

CO/N=C(\C(=O)N[C@@H]1C(=O)N2C(C(=O)O)=C(COC(C)=O)CS[C@H]12)c1csc(N)n1 [CEFOTAXIME]
16 µg/mL: Bacteroides fragilis [29] | [43]
2 µg/mL: Bacteroides fragilis [23] | [25] | [26] | [27] | [28] | Bacteroides fragilis [30] | Bacteroides fragilis [31] | Phocaeicola vulgatus | Clostridium perfringens [37] | Thomasclavelia ramosa
4 µg/mL: Bacteroides fragilis [18] | Bacteroides fragilis [19] | Bacteroides fragilis [20] | Bacteroides fragilis [24] | Bacteroides fragilis [33]
> 128 µg/mL: Bacteroides fragilis [32]
1 µg/mL: Bacteroides fragilis [22] | Clostridium butyricum | [45]
0.5 µg/mL: Clostridium perfringens [38] | Clostridium sporogenes | Fusobacterium nucleatum | [42]
≤ 0.25 µg/mL: Clostridium perfringens [36] | Clostridium perfringens [39] | [41] | [44]
128 µg/mL: [34] | [35] | Clostridium septicum
8 µg/mL: Bacteroides fragilis [21] | Anaerococcus prevotii
32 µg/mL: [40]

CO[C@@]1(NC(=O)Cc2cccs2)C(=O)N2C(C(=O)O)=C(COC(N)=O)CS[C@@H]21 [CEFOXITIN]
6.25 µg/mL: Staphylococcus aureus [17]
50 µg/mL: Staphylococcus aureus [2] | Staphylococcus aureus [6]
1.56 µg/mL: Staphylococcus aureus [5] | Staphylococcus aureus [10] | Staphylococcus aureus [11]
> 100 µg/mL: Staphylococcus aureus [1] | Staphylococcus aureus [7]
12.5 µg/mL: Staphylococcus aureus [4] | Staphylococcus aureus [8] | Staphylococcus aureus [9] | Staphylococcus aureus [14] | Staphylococcus aureus [16]
25 µg/mL: Staphylococcus aureus [12] | Staphylococcus aureus [13]
≤ 0.78 µg/mL: Staphylococcus aureus [3]
100 µg/mL: Staphylococcus aureus [15]

O=C(O)c1cn(C2CC2)c2cc(N3CCNCC3)c(F)cc2c1=O [CIPROFLOXACIN]
100 µg/mL: Staphylococcus aureus [9] | Staphylococcus aureus [10] | Staphylococcus aureus [13] | Staphylococcus aureus [14]
> 100 µg/mL: Staphylococcus aureus [12]
≤ 0.78 µg/mL: Staphylococcus aureus [2] | Staphylococcus aureus [4] | Staphylococcus aureus [6] | Staphylococcus aureus [7] | Staphylococcus aureus [11]
12.5 µg/mL: Staphylococcus aureus [8] | Staphylococcus aureus [15] | Staphylococcus aureus [16] | Staphylococcus aureus [17]
50 µg/mL: Staphylococcus aureus [3]
1.56 µg/mL: Staphylococcus aureus [1] | Staphylococcus aureus [5]
